ChEMBL document CHEMBL4842322, “A naphthalimide-polyamine conjugate preferentially accumulates in hepatic carcinoma metastases as a lysosome-targeted antimetastatic agent” (Eur J Med Chem, 2021)

Tests used:
Format in all cases: functional, cell-based
[1] = system: A549; assay: Cytotoxicity against human A549 cells assessed as inhibition of cell growth incubated for 48 hrs by MTT assay; settings: A549, 48 h
[2] = system: Huh-7; assay: Cytotoxicity against human Huh-7 cells assessed as inhibition of cell growth incubated for 48 hrs by MTT assay; settings: Huh-7, 48 h
[3] = system: MCF7; assay: Cytotoxicity against human MCF7 cells assessed as inhibition of cell growth incubated for 48 hrs by MTT assay; settings: MCF7, 48 h
[4] = system: A549; assay: Cytotoxicity against cisplatin-resistant human A549 cells assessed as inhibition of cell growth incubated for 48 hrs by MTT assay; settings: A549, 48 h
[5] = system: MDA-MB-231; assay: Cytotoxicity against human MDA-MB-231 cells assessed as inhibition of cell growth incubated for 48 hrs by MTT assay; settings: MDA-MB-231, 48 h
[6] = system: HepG2; assay: Cytotoxicity against human HepG2 cells assessed as inhibition of cell growth incubated for 48 hrs by MTT assay; settings: HepG2, 48 h

CCCNCCCN1C(=O)c2cccc3cc(NC(=O)CN)cc(c23)C1=O
IC50 [1]: > 30 µM | IC50 [2]: 10.1 µM | IC50 [3]: > 30 µM | IC50 [4]: > 30 µM | IC50 [5]: > 30 µM | IC50 [6]: > 30 µM
